Reference: PMC7732025 (Archives of pharmacal research, 2013)

Assays:
[1] = Cytotoxic assay, primary human PBM cells; type: cell-based; details: human, primary human PBM cells
[2] = Cytotoxic assay, VERO cells; type: cell-based; details: African green monkey
[3] = in vitro; details: human, CEM cells
[4] = tested on: primary human PBM cells; assay: Cytotoxic assay, primary human PBM cells; type: cell-based; details: primary human PBM cells (lymphocytes)
[5] = tested on: VERO cells; assay: Cytotoxic assay, VERO cells; type: cell-based
[6] = tested on: CEM cells
[7] = tested on: HIV-1; assay: Anti-HIV-1 assay in activated primary human PBM cells; type: cell-based, human immunodeficiency virus type 1; details: for EC50: read-out: Anti-HIV-1 activity in human PBM cells EC50

Row | IC50 at 5 day [3] | Structure (SMILES) | IC50 at 5 day [1] | IC50 at 5 day [2] | toxicity in primary human PBM cells (in words) [4] | toxicity in VERO cells (in words) [5] | toxicity in CEM cells (in words) [6] | EC50 [7] | anti-HIV-1 activity (in words) [7]
1 | 13.8 µM | CC(=NNC(=O)CN1c2c(-c3ccccc3)n[nH]c2-c2ccccc2S1(=O)=O)c1ccc(C)s1 [5m, 2-(5,5-Dioxido-3-phenylbenzo[e]pyrazolo[4,3-c][1,2]thiazin-4(1H)-yl)-N′-(1-(5-methylthiophen-2-yl)ethylidene)acetohydrazide] | 62.3 µM | 30.6 µM | – | – | – | – | –
2 | 23.9 µM | CC(=NNC(=O)CN1c2c(-c3ccccc3)n[nH]c2-c2ccccc2S1(=O)=O)c1ccc2c(c1)OCCO2 [5q, N′-(1-(2,3-dihydrobenzo[b][1,4]dioxin-6-yl)ethylidene)-2-(5,5-dioxido-3-phenylbenzo[e]pyrazolo[4,3-c][1,2]thiazin-4(1H)-yl)acetohydrazide] | 67.1 µM | > 100 µM | non-toxic | non-toxic | – | – | –
3 | 20 µM | CC(=NNC(=O)CN1c2c(-c3ccccc3)n[nH]c2-c2ccccc2S1(=O)=O)c1ccc[nH]1 [5o, N′-(1-(1H-pyrrol-2-yl)ethylidene)-2-(5,5-dioxido-3-phenylbenzo[e]pyrazolo[4,3-c][1,2]thiazin-4(1H)-yl)acetohydrazide] | 41.4 µM | 22.3 µM | – | – | – | – | –
4 | 8.2 µM | CC(=NNC(=O)CN1c2c(-c3ccccc3)n[nH]c2-c2ccccc2S1(=O)=O)c1nccs1 [5u, 2-(5,5-Dioxido-3-phenylbenzo[e]pyrazolo[4,3-c][1,2]thiazin-4(1H)-yl)-N′-(1-(thiazol-2-yl)ethylidene)acetohydrazide] | 15.7 µM | 43.1 µM | – | – | – | – | –
5 | > 100 µM | CC(=NNC(=O)CN1c2c(-c3ccccc3)n[nH]c2-c2ccccc2S1(=O)=O)c1sc(N)nc1C [5h, N′-(1-(2-amino-4-methylthiazol-5-yl)ethylidene)-2-(5,5-dioxido-3-phenylbenzo[e]pyrazolo[4,3-c][1,2]thiazin-4(1H)-yl)acetohydrazide] | > 100 µM | > 100 µM | no toxicity | no toxicity | no toxicity | – | –
6 | 13.9 µM | O=C(CN1c2c(-c3ccccc3)n[nH]c2-c2ccccc2S1(=O)=O)NN=Cc1cccs1 [5w, 2-(5,5-Dioxido-3-phenylbenzo[e]pyrazolo[4,3-c][1,2]thiazin-4(1H)-yl)-N′-(thiophen-2-ylmethylene)acetohydrazide] | 30.6 µM | 41.8 µM | no toxicity | no toxicity | – | – | –
7 | 17.6 µM | CC(=NNC(=O)CN1c2c(-c3ccccc3)n[nH]c2-c2ccccc2S1(=O)=O)c1cc(C)sc1C [5d, N′-(1-(2,5-dimethylthiophen-3-yl)ethylidene)-2-(5,5-dioxido-3-phenylbenzo[e]pyrazolo[4,3-c][1,2]thiazin-4(1H)-yl)acetohydrazide] | 36.5 µM | 44.4 µM | – | – | – | – | –
8 | 8.4 µM | CC(=NNC(=O)CN1c2c(-c3ccccc3)n[nH]c2-c2ccccc2S1(=O)=O)c1ccc(Cl)s1 [5g, N′-(1-(5-chlorothiophen-2-yl)ethylidene)-2-(5,5-dioxido-3-phenylbenzo[e]pyrazolo[4,3-c][1,2]thiazin-4(1H)-yl)acetohydrazide] | 13.9 µM | 57.4 µM | – | – | – | – | –
9 | 16.8 µM | CC(=NNC(=O)CN1c2c(-c3ccccc3)n[nH]c2-c2ccccc2S1(=O)=O)c1sccc1Cl [5e, N′-(1-(3-chlorothiophen-2-yl)ethylidene)-2-(5,5-dioxido-3-phenylbenzo[e]pyrazolo[4,3-c][1,2]thiazin-4(1H)-yl)acetohydrazide] | 69.1 µM | > 100 µM | non-toxic | non-toxic | – | – | –
10 | 10.7 µM | CC(=NNC(=O)CN1c2c(-c3ccccc3)n[nH]c2-c2ccccc2S1(=O)=O)c1ccsc1 [5c, 2-(5,5-Dioxido-3-phenylbenzo[e]pyrazolo[4,3-c][1,2]thiazin-4(1H)-yl)-N′-(1-(thiophen-3-yl)ethylidene)acetohydrazide] | 73.2 µM | 78.7 µM | no toxicity | no toxicity | – | – | –
11 | 9.9 µM | CC(=NNC(=O)CN1c2c(-c3ccccc3)n[nH]c2-c2ccccc2S1(=O)=O)c1cc(C)oc1C [5t, N′-(1-(2,5-dimethylfuran-3-yl)ethylidene)-2-(5,5-dioxido-3-phenylbenzo[e]pyrazolo[4,3-c][1,2]thiazin-4(1H)-yl)acetohydrazide] | 17.3 µM | 41.4 µM | – | – | – | – | –
12 | < 1 µM | CC(=NNC(=O)CN1c2c(-c3ccccc3)n[nH]c2-c2ccccc2S1(=O)=O)c1ccc(Br)s1 [5p, N′-(1-(5-bromothiophen-2-yl)ethylidene)-2-(5,5-dioxido-3-phenylbenzo[e]pyrazolo[4,3-c][1,2]thiazin-4(1H)-yl)acetohydrazide] | 10.5 µM | 18.1 µM | – | – | – | – | –
13 | 27.8 µM | CC(=NNC(=O)CN1c2c(-c3ccccc3)n[nH]c2-c2ccccc2S1(=O)=O)c1cc2ccccc2oc1=O [5k, 2-(5,5-Dioxido-3-phenylbenzo[e]pyrazolo[4,3-c][1,2]thiazin-4(1H)-yl)-N′-(1-(2-oxo-2H-chromen-3-yl)ethylidene)acetohydrazide] | 82.7 µM | > 100 µM | non-toxic | non-toxic | – | – | –
14 | 24.2 µM | CC(=NNC(=O)CN1c2c(-c3ccccc3)n[nH]c2-c2ccccc2S1(=O)=O)c1ccc2ccccc2c1 [5l, 2-(5,5-Dioxido-3-phenylbenzo[e]pyrazolo[4,3-c][1,2]thiazin-4(1H)-yl)-N′-(1-(naphthalen-2-yl)ethylidene)acetohydrazide] | 12.2 µM | < 1 µM | – | – | – | – | –
15 | 19.6 µM | CC(=NNC(=O)CN1c2c(-c3ccccc3)n[nH]c2-c2ccccc2S1(=O)=O)c1sccc1Br [5f, N′-(1-(3-bromothiophen-2-yl)ethylidene)-2-(5,5-dioxido-3-phenylbenzo[e]pyrazolo[4,3-c][1,2]thiazin-4(1H)-yl)acetohydrazide] | 42.8 µM | > 100 µM | – | – | – | – | –
16 | 14.4 µM | CC(=NNC(=O)CN1c2c(-c3ccccc3)n[nH]c2-c2ccccc2S1(=O)=O)c1cc(Cl)sc1Cl [5i, N′-(1-(2,5-dichlorothiophen-3-yl)ethylidene)-2-(5,5-dioxido-3-phenylbenzo[e]pyrazolo[4,3-c][1,2]thiazin-4(1H)-yl)acetohydrazide] | 12.2 µM | 38.8 µM | toxic | toxic | toxic | – | –
17 | 5 µM | CC(=NNC(=O)CN1c2c(-c3ccccc3)n[nH]c2-c2ccccc2S1(=O)=O)c1ccc([N+](=O)[O-])s1 [5r, 2-(5,5-Dioxido-3-phenylbenzo[e]pyrazolo[4,3-c][1,2]thiazin-4(1H)-yl)-N′-(1-(5-nitrothiophen-2-yl)ethylidene)acetohydrazide] | 85 µM | 43.6 µM | – | – | – | – | –

Row | Structure (SMILES) | IC50 at 5 day [3] | IC50 at 5 day [1] | IC50 at 5 day [2] | toxicity in primary human PBM cells (in words) [4] | toxicity in VERO cells (in words) [5] | toxicity in CEM cells (in words) [6] | EC50 [7] | anti-HIV-1 activity (in words) [7]
18 | CC(=NNC(=O)CN1c2c(-c3ccccc3)n[nH]c2-c2ccccc2S1(=O)=O)c1sccc1C [5b, 2-(5,5-Dioxido-3-phenylbenzo[e]pyrazolo[4,3-c][1,2]thiazin-4(1H)-yl)-N′-(1-(3-methylthiophen-2-yl)ethylidene)acetohydrazide] | 13.1 µM | 56.2 µM | 75.3 µM | – | – | – | 11.6 µM | –
19 | CC(=NNC(=O)CN1c2c(-c3ccccc3)n[nH]c2-c2ccccc2S1(=O)=O)c1ccncc1 [5v, 2-(5,5-Dioxido-3-phenylbenzo[e]pyrazolo[4,3-c][1,2]thiazin-4(1H)-yl)-N′-(1-(pyridin-4-yl)ethylidene)acetohydrazide] | 34.5 µM | 75.6 µM | 84.1 µM | – | – | – | – | inactive
20 | CC(=NNC(=O)CN1c2c(-c3ccccc3)n[nH]c2-c2ccccc2S1(=O)=O)c1cc(C)cs1 [5j, 2-(5,5-Dioxido-3-phenylbenzo[e]pyrazolo[4,3-c][1,2]thiazin-4(1H)-yl)-N′-(1-(4-methylthiophen-2-yl)ethylidene)acetohydrazide] | 18.3 µM | > 100 µM | 6 µM | – | – | – | 13.3 µM | –
21 | CC(=NNC(=O)CN1c2c(-c3ccccc3)n[nH]c2-c2ccccc2S1(=O)=O)c1ccc(C)o1 [5s, 2-(5,5-Dioxido-3-phenylbenzo[e]pyrazolo[4,3-c][1,2]thiazin-4(1H)-yl)-N′-(1-(5-methylfuran-2-yl)ethylidene)acetohydrazide] | 15.4 µM | 53.8 µM | > 100 µM | – | – | – | – | inactive
22 | CC(=NNC(=O)CN1c2c(-c3ccccc3)n[nH]c2-c2ccccc2S1(=O)=O)c1cc2ccccc2o1 [5n, N′-(1-(benzofuran-2-yl)ethylidene)-2-(5,5-dioxido-3-phenylbenzo[e]pyrazolo[4,3-c][1,2]thiazin-4(1H)-yl)acetohydrazide] | 22.4 µM | > 100 µM | 23 µM | – | – | – | – | inactive
23 | CC(=NNC(=O)CN1c2c(-c3ccccc3)n[nH]c2-c2ccccc2S1(=O)=O)c1cccs1 [5a, 2-(5,5-Dioxido-3-phenylbenzo[e]pyrazolo[4,3-c][1,2]thiazin-4(1H)-yl)-N′-(1-(thiophen-2-yl)ethylidene)acetohydrazide] | 23.3 µM | 88 µM | 77.2 µM | no toxicity | no toxicity | – | 11.2 µM | –
